Measured values as given in patent US10442807B2, “Aryl substituted bicyclic compounds as herbicides” (FMC Corporation, priority 2015, dated 2019).

Legend:
Format in all cases: in vivo
[1] = system: ragweed (common ragweed, Ambrosia elation); experiment: Test A preemergence, directed soil spray, visual injury rating; conditions: approx. 10 d, 0 = no effect, 100 = complete control
Procedure, shortened: (§1)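 Rated visually against untreated controls after approx. 10 d in greenhouse, scale 0 = no effect, 100 = complete control. Seeded loam/sand blend given directed soil spray preemergence, or plants sprayed at one- to two-leaf stage, 2-10 cm tall; surfactant-containing non-phytotoxic solvent formulation.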

[2] = system: pigweed (Amaranthus retroflexus); experiment: as above; conditions: approx. 10 d, 0 = no effect, 100 = complete control
Procedure, shortened: as §1

[3] = system: barnyardgrass (Echinochloa crus-galli); experiment: as above; conditions: approx. 10 d, 0 = no effect, 100 = complete control
Procedure, shortened: as §1

[4] = system: foxtail, giant (giant foxtail, Setaria faberii); experiment: as above; conditions: approx. 10 d, 0 = no effect, 100 = complete control
Procedure, shortened: as §1

[5] = system: kochia (Kochia scoparia); experiment: as above; conditions: approx. 10 d, 0 = no effect, 100 = complete control
Procedure, shortened: as §1

[6] = system: ryegrass, Italian (Italian ryegrass, Lolium multiflorum); experiment: as above; conditions: approx. 10 d, 0 = no effect, 100 = complete control
Procedure, shortened: as §1

[7] = system: ragweed (common ragweed, Ambrosia elation); experiment: Test A postemergence application, visual injury rating; conditions: approx. 10 d, 0 = no effect, 100 = complete control
Procedure, shortened: as §1

[8] = system: pigweed (Amaranthus retroflexus); experiment: as above; conditions: approx. 10 d, 0 = no effect, 100 = complete control
Procedure, shortened: as §1

[9] = system: barnyardgrass (Echinochloa crus-galli); experiment: as above; conditions: approx. 10 d, 0 = no effect, 100 = complete control
Procedure, shortened: as §1

[10] = system: foxtail, giant (giant foxtail, Setaria faberii); experiment: as above; conditions: approx. 10 d, 0 = no effect, 100 = complete control
Procedure, shortened: as §1

[11] = system: corn (Zea mays); experiment: as above; conditions: approx. 10 d, 0 = no effect, 100 = complete control
Procedure, shortened: as §1

[12] = system: galium (catchweed bedstraw, Galium aparine); experiment: as above; conditions: approx. 10 d, 0 = no effect, 100 = complete control
Procedure, shortened: as §1

[13] = system: kochia (Kochia scoparia); experiment: as above; conditions: approx. 10 d, 0 = no effect, 100 = complete control
Procedure, shortened: as §1

[14] = system: ryegrass, Italian (Italian ryegrass, Lolium multiflorum); experiment: as above; conditions: approx. 10 d, 0 = no effect, 100 = complete control
Procedure, shortened: as §1

[15] = system: wheat (Triticum aestivum); experiment: as above; conditions: approx. 10 d, 0 = no effect, 100 = complete control
Procedure, shortened: as §1

[16] = system: blackgrass (Alopecurus myosuroides); experiment: as above; conditions: approx. 10 d, 0 = no effect, 100 = complete control
Procedure, shortened: as §1

[17] = system: barnyardgrass (Echinochloa crus-galli); experiment: Test B flooded paddy test, visual plant response rating; conditions: 250 g ai/ha; applied to paddy water at 2-leaf stage; rated after 13 to 15 days; scale 0 to 100, 0 is no effect, 100 is complete control
Procedure, shortened: (§2)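 Visual injury score 0 to 100 against controls (0 = no effect, 100 = complete control), taken 13–15 days after treatment. Test compound went into the paddy water of pots flooded 3 cm over the soil surface, water kept at that depth in greenhouse.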

[18] = system: sedge, umbrella (small-flower umbrella sedge, Cyperus difformis); experiment: as above; conditions: 250 g ai/ha; applied to paddy water at 2-leaf stage; rated after 13 to 15 days; scale 0 to 100, 0 is no effect, 100 is complete control
Procedure, shortened: as §2

[19] = system: ducksalad (Heteranthera limosa); experiment: as above; conditions: 250 g ai/ha; applied to paddy water at 2-leaf stage; rated after 13 to 15 days; scale 0 to 100, 0 is no effect, 100 is complete control
Procedure, shortened: as §2

[20] = system: rice (Oryza sativa); experiment: as above; conditions: 250 g ai/ha; applied to paddy water at 2-leaf stage; rated after 13 to 15 days; scale 0 to 100, 0 is no effect, 100 is complete control
Procedure, shortened: as §2

| SMILES | Ragweed plant response rating (0 to 100 scale) ([1]; 125 g ai/ha) | Ragweed plant response rating (0 to 100 scale) ([1]; 500 g ai/ha) | Pigweed plant response rating (0 to 100 scale) ([2]; 125 g ai/ha) | Pigweed plant response rating (0 to 100 scale) ([2]; 500 g ai/ha) | Barnyardgrass plant response rating (0 to 100 scale) ([3]; 125 g ai/ha) | Barnyardgrass plant response rating (0 to 100 scale) ([3]; 500 g ai/ha) | Foxtail, Giant plant response rating (0 to 100 scale) ([4]; 125 g ai/ha) | Foxtail, Giant plant response rating (0 to 100 scale) ([4]; 500 g ai/ha) | Kochia plant response rating (0 to 100 scale) ([5]; 125 g ai/ha) | Kochia plant response rating (0 to 100 scale) ([5]; 500 g ai/ha) | Ryegrass, Italian plant response rating (0 to 100 scale) ([6]; 125 g ai/ha) | Ryegrass, Italian plant response rating (0 to 100 scale) ([6]; 500 g ai/ha) | Ragweed plant response rating (0 to 100 scale) ([7]; 125 g ai/ha) | Ragweed plant response rating (0 to 100 scale) ([7]; 500 g ai/ha) | Pigweed plant response rating (0 to 100 scale) ([8]; 125 g ai/ha) | Pigweed plant response rating (0 to 100 scale) ([8]; 500 g ai/ha) | Barnyardgrass plant response rating (0 to 100 scale) ([9]; 125 g ai/ha) | Barnyardgrass plant response rating (0 to 100 scale) ([9]; 500 g ai/ha) | Foxtail, Giant plant response rating (0 to 100 scale) ([10]; 125 g ai/ha) | Foxtail, Giant plant response rating (0 to 100 scale) ([10]; 500 g ai/ha) | also measured |
| --- | --- | --- | --- | --- | --- | --- | --- | --- | --- | --- | --- | --- | --- | --- | --- | --- | --- | --- | --- | --- | --- |
| CCc1ccc(C2Cn3cnnc3C2C(=O)Nc2ccccc2SC)cc1 (stereo not drawn) [Compound 25] | 0 | 0 | 0 | 0 | 0 | 40 | 0 | 40 | 0 | 20 | 0 | 0 | 0 | 0 | 0 | 0 | 20 | 30 | 0 | 30 | Corn plant response rating (0 to 100 scale) ([11]; 125 g ai/ha): 0; Corn plant response rating (0 to 100 scale) ([11]; 500 g ai/ha): 0; Galium plant response rating (0 to 100 scale) ([12]; 125 g ai/ha): 0; Galium plant response rating (0 to 100 scale) ([12]; 500 g ai/ha): 0; Kochia plant response rating (0 to 100 scale) ([13]; 125 g ai/ha): 30; Kochia plant response rating (0 to 100 scale) ([13]; 500 g ai/ha): 30; Ryegrass, Italian plant response rating (0 to 100 scale) ([14]; 125 g ai/ha): 0; Ryegrass, Italian plant response rating (0 to 100 scale) ([14]; 500 g ai/ha): 0; Wheat plant response rating (0 to 100 scale) ([15]; 125 g ai/ha): 0; Wheat plant response rating (0 to 100 scale) ([15]; 500 g ai/ha): 0; Blackgrass plant response rating (0 to 100 scale) ([16]; 125 g ai/ha): 0; Blackgrass plant response rating (0 to 100 scale) ([16]; 500 g ai/ha): 0; Plant response rating, Flood, Barnyardgrass [17]: 0; Plant response rating, Flood, Sedge, Umbrella [18]: 0; Plant response rating, Flood, Ducksalad [19]: 65; Plant response rating, Flood, Rice [20]: 0 |
| Cc1ccc(C2Cn3cnnc3C2C(=O)Nc2cccc(F)c2C)cc1C (stereo not drawn) [Compound 26] | 0 | 0 | 0 | 0 | 60 | 90 | 80 | 90 | 20 | 30 | 0 | 50 | 0 | 0 | 0 | 0 | 50 | 80 | 50 | 80 | Corn plant response rating (0 to 100 scale) ([11]; 125 g ai/ha): 20; Corn plant response rating (0 to 100 scale) ([11]; 500 g ai/ha): 0; Galium plant response rating (0 to 100 scale) ([12]; 125 g ai/ha): 30; Galium plant response rating (0 to 100 scale) ([12]; 500 g ai/ha): 0; Kochia plant response rating (0 to 100 scale) ([13]; 125 g ai/ha): 0; Kochia plant response rating (0 to 100 scale) ([13]; 500 g ai/ha): 0; Ryegrass, Italian plant response rating (0 to 100 scale) ([14]; 125 g ai/ha): 0; Ryegrass, Italian plant response rating (0 to 100 scale) ([14]; 500 g ai/ha): 20; Wheat plant response rating (0 to 100 scale) ([15]; 125 g ai/ha): 30; Wheat plant response rating (0 to 100 scale) ([15]; 500 g ai/ha): 0; Blackgrass plant response rating (0 to 100 scale) ([16]; 125 g ai/ha): 0; Blackgrass plant response rating (0 to 100 scale) ([16]; 500 g ai/ha): 50; Plant response rating, Flood, Barnyardgrass [17]: 0; Plant response rating, Flood, Sedge, Umbrella [18]: 0; Plant response rating, Flood, Ducksalad [19]: 85; Plant response rating, Flood, Rice [20]: 20 |
| Cc1ccc(C2Cn3c(C)nnc3C2C(=O)Nc2ccccc2F)cc1 (stereo not drawn) [Compound 27] | 0 | 0 | 0 | 0 | 0 | 90 | 80 | 90 | 0 | 0 | 20 | 20 | 0 | 0 | 0 | 0 | 40 | 90 | 30 | 90 | Corn plant response rating (0 to 100 scale) ([11]; 125 g ai/ha): 0; Corn plant response rating (0 to 100 scale) ([11]; 500 g ai/ha): 0; Galium plant response rating (0 to 100 scale) ([12]; 125 g ai/ha): 0; Galium plant response rating (0 to 100 scale) ([12]; 500 g ai/ha): 40; Kochia plant response rating (0 to 100 scale) ([13]; 125 g ai/ha): 0; Kochia plant response rating (0 to 100 scale) ([13]; 500 g ai/ha): 0; Ryegrass, Italian plant response rating (0 to 100 scale) ([14]; 125 g ai/ha): 0; Ryegrass, Italian plant response rating (0 to 100 scale) ([14]; 500 g ai/ha): 30; Wheat plant response rating (0 to 100 scale) ([15]; 125 g ai/ha): 0; Wheat plant response rating (0 to 100 scale) ([15]; 500 g ai/ha): 0; Blackgrass plant response rating (0 to 100 scale) ([16]; 125 g ai/ha): 0; Blackgrass plant response rating (0 to 100 scale) ([16]; 500 g ai/ha): 20; Plant response rating, Flood, Barnyardgrass [17]: 0; Plant response rating, Flood, Sedge, Umbrella [18]: 0; Plant response rating, Flood, Ducksalad [19]: 70; Plant response rating, Flood, Rice [20]: 0 |
| CCc1ccc(C2Cn3cnnc3C2C(=O)Nc2cccc(F)c2C)cc1 (stereo not drawn) [Compound 28] | 0 | 30 | 0 | 0 | 60 | 90 | 70 | 90 | 60 | 60 | 0 | 30 | 0 | 0 | 0 | 0 | 50 | 80 | 40 | 60 | Corn plant response rating (0 to 100 scale) ([11]; 125 g ai/ha): 0; Corn plant response rating (0 to 100 scale) ([11]; 500 g ai/ha): 0; Galium plant response rating (0 to 100 scale) ([12]; 125 g ai/ha): 20; Galium plant response rating (0 to 100 scale) ([12]; 500 g ai/ha): 30; Kochia plant response rating (0 to 100 scale) ([13]; 125 g ai/ha): 20; Kochia plant response rating (0 to 100 scale) ([13]; 500 g ai/ha): 50; Ryegrass, Italian plant response rating (0 to 100 scale) ([14]; 125 g ai/ha): 0; Ryegrass, Italian plant response rating (0 to 100 scale) ([14]; 500 g ai/ha): 50; Wheat plant response rating (0 to 100 scale) ([15]; 125 g ai/ha): 0; Wheat plant response rating (0 to 100 scale) ([15]; 500 g ai/ha): 0; Blackgrass plant response rating (0 to 100 scale) ([16]; 125 g ai/ha): 20; Blackgrass plant response rating (0 to 100 scale) ([16]; 500 g ai/ha): 40; Plant response rating, Flood, Barnyardgrass [17]: 40; Plant response rating, Flood, Sedge, Umbrella [18]: 75; Plant response rating, Flood, Ducksalad [19]: 90; Plant response rating, Flood, Rice [20]: 20 |
